By mortality is commonly meant the share of the test organisms that died. A low value points to a weak lethal effect. One may read the LD50 as the dose at which mortality reaches 50%. Higher therefore signals lower toxicity.

Each structure is given as a SMILES string.

The subject of data set [1] is Myzus persicae Sulzer--Green peach aphid. Description: Effect on green peach aphid (mortality, sprayed eggplant seedlings). The data set is classed as in vivo. The conditions noted are these: Myzus persicae, 48 h. As for the experimental part: (§1) 20 parts of a compound of the present invention, 10 parts of Sorpol 355S (made by Toho Chemical Co., Ltd., a surface active agent), 70 parts of xylene were uniformly stirred and mixed to obtain an emulsion. Here, the parts mean parts by weight, which will apply to the following.
Effect on Myzus persicae Sulzer--Green peach aphid
The emulsion of each compound of the present invention prepared according to Formulation Example 1 was diluted with distilled water to a predetermined concentration, and a spreading agent (New Gramn, made by Sankyo Co., Ltd.) was then added thereto so that its concentration might be 0.02%. Then, the thus prepared chemical solution was sprayed over eggplant seedlings of 2nd and 3rd plastochrons, on which green peach aphids had been parasitic, and the seedlings were the cultivated in a hothouse. After 48 hours, the number of the alive green peach aphid was counted to calculate mortality.

In data set [2] the test system is resistant strain of Nepphotettix cincticeptus Unler--Resistant green rice leafhopper. Description: Effect on resistant green rice leafhopper (mortality, treated rice seedlings). The conditions noted are these: Nephotettix cincticeps, 48 h. The data set is classed as in vivo. As for the experimental part: Effect on resistant strain of Nepphotettix cincticeptus Unler--Resistant green rice leafhopper
(§2) Each compound of the present invention was dissolved in acetone to prepare an acetone solution having a predetermined concentration, and 3 ml of the acetone solution was applied over a bundle of several rice seedlings (about third leaf stage). After drying in air, the treated seedlings were covered with a metal gauze cylinder, and ten female adults of resistant green rice leafhopper were introduced into the cylinder. Afterward, this cylinder was placed in a temperature controlled room at 25° C., and after 48 hours, mortality was checked.

Data set [3] deals with Spodoptera litura Fabricius--Common cutworm. As to the kind of experiment: Effect on common cutworm (mortality, leaf immersion). The data set is classed as in vivo. As to conditions: Spodoptera litura, 72 h, second instar larvae, 25° C. As for the experimental part:
as §1
Effect on Spodoptera litura Fabricius--Common cutworm
The emulsion of each compound of the present invention prepared according to Formulation Example 1 was diluted with distilled water to a predetermined concentration, and a spreading agent New Gramin, made by Sankyo Co., Ltd.) was then added thereto so that its concentration might be 0.02%. Then, 3leaves of Ipomea batatas were fully immersed in the solution. After drying in air, the leaves were placed in a plastic cup having a diameter of 9 cm and a depth of 4 cm, and 10 second instar larvae of common cutworm were allowed to eat the leaves at 25° C. After 72 hours, mortality was checked.

Data set [4] in a line: Acute toxicity to mice (oral). As to conditions: mouse, in vivo; oral (stomach tube); male mice 6 weeks old; 14 days observation. As for the experimental part:
5-week-old male mice (Crj: CD-1) were purchased and then tamed for 1 week, and so the mice of 6 weeks old were tested. The mice were bred in a breeding chamber having a temperature of 23°±2° C., a humidity of 50±10%, a ventilation frequency of 15 times/hour and a lighting time of 12 hours/day. A solid feed (CE-2, made by Nippon Clea) was given, and as drinking water, tap water was freely given.
Each compound to be tested was Suspended in acetone:corn oil (1:9) by the use of a high-speed homogenizer, and then orally administered forcedly to the mice to be tested through a stomach tube. The amount of the solution to be administered was 0.1 ml with respect to 10 g of weight (10 ml/kg).
One administration group was constituted of 5 mice, and an observation period was 14 days from the administration.

Data set [5] has as its system Laodelphax striatellus Fallen--Smaller brown planthopper. Description: Effect on smaller brown planthopper (mortality, treated rice seedlings). The data set is classed as in vivo. As to conditions: female adults, 25° C., 48 hours. As for the experimental part: as §2, with “Effect on Laodelphax striatellus Fallen--Smaller brown planthopper Each” for “Each”, “smaller brown planthopper” for “resistant green rice leafhopper”, “C.” for “C.,”

The compound `O=[N+]([O-])N=C1NCCCN1CC1CCOC1` (centres unmarked) [Compound No. 1, 1-[(tetrahydro-3-furanyl)methyl]-2-(nitroimino)hexahydropyrimidine] returned a mortality at 10 ppm in data set [1] (10 ppm) of 100%. In data set [1] (100 ppm), the mortality at 100 ppm was found to be 100%. Further, in data set [2], the mortality at 200 ppm came out at 100%. The mortality at 1000 ppm worked out at 100% in data set [2] and 70% in data set [3]. For the same compound, in data set [4], the LD50 at 336 h was above 300 mg/kg. Further, the “Mortality (%)” value in data set [5] (200 ppm) and in data set [5] (1000 ppm) was 100% in each case.

The record behind these values is patent publication US5614527A, “Insecticidal tetrahydrofuran-compound” (Mitsui Toatsu Chemicals, Inc., priority 1994, dated 1997).
